Data published in publication PMC5522071, “Preclinical development of G1T38: A novel, potent and selective inhibitor of cyclin dependent kinases 4/6 for use as an oral antineoplastic in patients with CDK4/6 sensitive tumors” (Oncotarget, 2017).

How the values were obtained:
CDK9/Cyclin T = biological target: T1, CDK9/Cyclin T (Homo sapiens, UniProt P50750); assay type: biochemical; settings: 12-point dose response, singlicate, at Km for ATP
T1 construct: purchased Nanosyn, Inc. (contract assay)

CDK4/ CyclinD1 = biological target: T2, CDK4/ CyclinD1 (Homo sapiens, UniProt P11802); experiment: KdELECT Kd determination (DiscoveRx); assay type: binding; settings: duplicate 11-point dose-response curves
T2 construct: purchased DiscoveRx (KdELECT service)
T2 sequence (P11802 whole entry): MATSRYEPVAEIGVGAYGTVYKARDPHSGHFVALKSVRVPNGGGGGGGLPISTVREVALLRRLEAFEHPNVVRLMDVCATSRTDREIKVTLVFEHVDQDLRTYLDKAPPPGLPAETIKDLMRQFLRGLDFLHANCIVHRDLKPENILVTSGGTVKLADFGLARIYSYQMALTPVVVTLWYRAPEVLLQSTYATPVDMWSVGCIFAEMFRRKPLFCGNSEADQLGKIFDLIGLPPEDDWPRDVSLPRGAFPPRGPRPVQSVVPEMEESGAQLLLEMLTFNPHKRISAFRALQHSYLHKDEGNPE
T2 sequence (P24385 whole entry partner): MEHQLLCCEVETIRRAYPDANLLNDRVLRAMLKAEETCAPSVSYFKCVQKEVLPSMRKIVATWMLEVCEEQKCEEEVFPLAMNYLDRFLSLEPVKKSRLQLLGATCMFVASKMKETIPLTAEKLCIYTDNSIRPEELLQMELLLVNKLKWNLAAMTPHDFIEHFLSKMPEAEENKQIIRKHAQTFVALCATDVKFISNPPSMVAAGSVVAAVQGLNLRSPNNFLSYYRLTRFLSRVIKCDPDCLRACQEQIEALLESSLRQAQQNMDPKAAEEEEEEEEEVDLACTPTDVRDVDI
Experimental: (§1) G1T38 was profiled at DiscoveRx (Fremont, CA) using their KINOMEscan and scanMAX screening technology.
(§2) Supplementary Table 1: G1T38 Kinase Interactions
(§3) primary screen. Inhibitor binding constants (Kd values) were calculated from duplicate 11-point dose-response curves for
(§4) (1 picture or pasted object on this page, not shown here)

CDK4/ CyclinD3 = biological target: T3, CDK4/ CyclinD3 (Homo sapiens, UniProt P11802); experiment: KdELECT Kd determination (DiscoveRx); assay type: binding; settings: duplicate 11-point dose-response curves
T3 construct: purchased DiscoveRx (KdELECT service)
T3 sequence (P11802 whole entry): as the sequence (P11802 whole entry) above
T3 sequence (P30281 whole entry partner): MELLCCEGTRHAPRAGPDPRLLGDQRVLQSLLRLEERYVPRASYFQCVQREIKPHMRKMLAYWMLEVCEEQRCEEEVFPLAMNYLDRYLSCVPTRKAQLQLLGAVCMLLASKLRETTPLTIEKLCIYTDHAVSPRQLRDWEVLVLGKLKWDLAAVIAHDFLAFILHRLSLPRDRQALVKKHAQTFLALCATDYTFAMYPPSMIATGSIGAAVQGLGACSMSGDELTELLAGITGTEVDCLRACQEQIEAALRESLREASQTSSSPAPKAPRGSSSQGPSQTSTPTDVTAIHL
Experimental: as §1, §2, §3, §4

FLT3 (D835V) = biological target: T4, FLT3 (D835V) (Homo sapiens, UniProt P36888, D835V); experiment: KdELECT Kd determination (DiscoveRx); assay type: binding; settings: duplicate 11-point dose-response curves
T4 construct: purchased DiscoveRx (KdELECT service)
Experimental: as §1, §2, §3, §4

NEK10 = biological target: T5, NEK10 (Homo sapiens, UniProt Q6ZWH5); experiment: KdELECT Kd determination (DiscoveRx); assay type: binding; settings: duplicate 11-point dose-response curves
T5 construct: purchased DiscoveRx (KdELECT service)
T5 sequence (Q6ZWH5 whole entry): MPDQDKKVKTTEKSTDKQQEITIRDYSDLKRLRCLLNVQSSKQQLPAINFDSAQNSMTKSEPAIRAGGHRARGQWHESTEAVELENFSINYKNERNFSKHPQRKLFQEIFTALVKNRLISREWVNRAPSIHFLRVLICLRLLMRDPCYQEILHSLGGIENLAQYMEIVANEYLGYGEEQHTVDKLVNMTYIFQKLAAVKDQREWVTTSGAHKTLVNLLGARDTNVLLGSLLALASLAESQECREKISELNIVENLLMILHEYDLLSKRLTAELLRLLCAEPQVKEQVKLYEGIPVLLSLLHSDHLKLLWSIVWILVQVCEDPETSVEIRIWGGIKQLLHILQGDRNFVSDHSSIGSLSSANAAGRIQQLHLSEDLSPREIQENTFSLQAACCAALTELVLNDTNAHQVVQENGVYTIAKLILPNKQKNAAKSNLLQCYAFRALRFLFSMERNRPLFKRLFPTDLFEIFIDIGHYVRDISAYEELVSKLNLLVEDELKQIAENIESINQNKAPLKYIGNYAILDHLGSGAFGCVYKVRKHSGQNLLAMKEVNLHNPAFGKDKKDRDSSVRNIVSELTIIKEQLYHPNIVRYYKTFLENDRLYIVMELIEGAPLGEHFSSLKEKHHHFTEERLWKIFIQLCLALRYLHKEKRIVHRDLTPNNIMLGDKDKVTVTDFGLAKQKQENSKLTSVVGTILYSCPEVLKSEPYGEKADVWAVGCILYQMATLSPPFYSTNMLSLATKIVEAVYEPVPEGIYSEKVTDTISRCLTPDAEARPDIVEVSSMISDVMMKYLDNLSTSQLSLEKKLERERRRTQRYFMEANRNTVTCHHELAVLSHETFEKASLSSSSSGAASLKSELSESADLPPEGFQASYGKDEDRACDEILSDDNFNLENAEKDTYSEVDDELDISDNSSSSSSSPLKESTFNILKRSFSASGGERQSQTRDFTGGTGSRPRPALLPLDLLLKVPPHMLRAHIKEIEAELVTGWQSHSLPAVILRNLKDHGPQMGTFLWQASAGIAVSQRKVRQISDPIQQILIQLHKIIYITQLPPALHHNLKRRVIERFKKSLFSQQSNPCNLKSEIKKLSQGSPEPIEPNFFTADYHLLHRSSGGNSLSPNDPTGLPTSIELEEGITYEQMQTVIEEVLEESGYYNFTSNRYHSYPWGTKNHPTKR
Experimental: as §1, §2, §3, §4

PRKD2 = biological target: T6, PRKD2 (Homo sapiens, UniProt Q9BZL6); experiment: KdELECT Kd determination (DiscoveRx); assay type: binding; settings: duplicate 11-point dose-response curves
T6 construct: purchased DiscoveRx (KdELECT service)
Experimental: as §1, §2, §3, §4

PRKD3 = biological target: T7, PRKD3 (Homo sapiens, UniProt O94806); experiment: KdELECT Kd determination (DiscoveRx); assay type: binding; settings: duplicate 11-point dose-response curves
T7 construct: purchased DiscoveRx (KdELECT service)
T7 sequence (O94806 whole entry): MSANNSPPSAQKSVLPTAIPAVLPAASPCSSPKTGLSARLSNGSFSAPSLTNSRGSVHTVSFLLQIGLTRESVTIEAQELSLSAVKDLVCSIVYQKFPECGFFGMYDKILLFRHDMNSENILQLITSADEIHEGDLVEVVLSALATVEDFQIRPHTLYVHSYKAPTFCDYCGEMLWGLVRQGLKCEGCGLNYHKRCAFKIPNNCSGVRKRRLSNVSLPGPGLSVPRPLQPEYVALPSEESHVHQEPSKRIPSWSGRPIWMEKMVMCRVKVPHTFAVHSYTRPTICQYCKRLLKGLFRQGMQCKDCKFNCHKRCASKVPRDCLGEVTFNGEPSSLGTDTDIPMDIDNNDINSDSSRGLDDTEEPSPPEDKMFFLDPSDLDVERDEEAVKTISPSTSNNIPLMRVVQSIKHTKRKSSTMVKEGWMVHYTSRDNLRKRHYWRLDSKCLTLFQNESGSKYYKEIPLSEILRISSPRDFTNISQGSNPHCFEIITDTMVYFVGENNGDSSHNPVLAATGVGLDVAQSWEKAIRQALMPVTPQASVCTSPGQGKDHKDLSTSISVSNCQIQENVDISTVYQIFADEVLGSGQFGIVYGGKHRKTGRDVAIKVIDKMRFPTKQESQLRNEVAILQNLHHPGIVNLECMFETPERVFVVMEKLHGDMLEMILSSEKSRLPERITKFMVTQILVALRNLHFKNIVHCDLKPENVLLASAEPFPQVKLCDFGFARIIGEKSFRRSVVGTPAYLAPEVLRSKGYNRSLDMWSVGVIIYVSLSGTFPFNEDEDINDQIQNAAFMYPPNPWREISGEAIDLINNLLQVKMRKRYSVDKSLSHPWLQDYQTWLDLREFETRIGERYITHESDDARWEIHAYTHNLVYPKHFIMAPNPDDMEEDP
Experimental: as §1, §2, §3, §4

SLK = biological target: T8, SLK (Homo sapiens, UniProt Q9H2G2); experiment: KdELECT Kd determination (DiscoveRx); assay type: binding; settings: duplicate 11-point dose-response curves
T8 construct: purchased DiscoveRx (KdELECT service)
Experimental: as §1, §2, §3, §4

SNARK = biological target: T9, SNARK (Homo sapiens, UniProt Q9H093); experiment: KdELECT Kd determination (DiscoveRx); assay type: binding; settings: duplicate 11-point dose-response curves
T9 construct: purchased DiscoveRx (KdELECT service)
Experimental: as §1, §2, §3, §4

TTK = biological target: T10, TTK (Homo sapiens, UniProt P33981); experiment: KdELECT Kd determination (DiscoveRx); assay type: binding; settings: duplicate 11-point dose-response curves
T10 construct: purchased DiscoveRx (KdELECT service)
T10 sequence (P33981 whole entry): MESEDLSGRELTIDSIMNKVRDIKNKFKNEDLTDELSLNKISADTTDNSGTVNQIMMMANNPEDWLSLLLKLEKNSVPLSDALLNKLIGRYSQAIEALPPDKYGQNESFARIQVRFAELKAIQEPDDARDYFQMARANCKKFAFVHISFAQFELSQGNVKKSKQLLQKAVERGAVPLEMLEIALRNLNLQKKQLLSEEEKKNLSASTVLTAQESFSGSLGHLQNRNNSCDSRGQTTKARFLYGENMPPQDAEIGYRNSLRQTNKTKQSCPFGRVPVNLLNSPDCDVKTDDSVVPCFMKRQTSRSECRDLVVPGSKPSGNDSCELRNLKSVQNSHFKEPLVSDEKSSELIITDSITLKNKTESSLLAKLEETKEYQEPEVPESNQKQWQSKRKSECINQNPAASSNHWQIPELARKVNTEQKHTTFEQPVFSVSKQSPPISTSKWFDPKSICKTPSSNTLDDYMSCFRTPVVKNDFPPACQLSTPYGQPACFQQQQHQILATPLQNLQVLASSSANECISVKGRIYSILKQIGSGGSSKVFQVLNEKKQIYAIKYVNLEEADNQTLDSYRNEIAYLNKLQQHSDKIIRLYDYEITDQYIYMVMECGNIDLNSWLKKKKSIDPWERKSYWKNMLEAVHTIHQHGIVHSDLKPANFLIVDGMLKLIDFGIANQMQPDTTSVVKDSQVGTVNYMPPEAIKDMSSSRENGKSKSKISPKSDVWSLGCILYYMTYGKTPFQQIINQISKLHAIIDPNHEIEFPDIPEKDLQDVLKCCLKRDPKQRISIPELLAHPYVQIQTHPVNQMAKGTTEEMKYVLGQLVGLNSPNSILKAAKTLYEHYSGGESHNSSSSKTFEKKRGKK
Experimental: as §1, §2, §3, §4

ULK2 = biological target: T11, ULK2 (Homo sapiens, UniProt Q8IYT8); experiment: KdELECT Kd determination (DiscoveRx); assay type: binding; settings: duplicate 11-point dose-response curves
T11 construct: purchased DiscoveRx (KdELECT service)
T11 sequence (Q8IYT8 whole entry): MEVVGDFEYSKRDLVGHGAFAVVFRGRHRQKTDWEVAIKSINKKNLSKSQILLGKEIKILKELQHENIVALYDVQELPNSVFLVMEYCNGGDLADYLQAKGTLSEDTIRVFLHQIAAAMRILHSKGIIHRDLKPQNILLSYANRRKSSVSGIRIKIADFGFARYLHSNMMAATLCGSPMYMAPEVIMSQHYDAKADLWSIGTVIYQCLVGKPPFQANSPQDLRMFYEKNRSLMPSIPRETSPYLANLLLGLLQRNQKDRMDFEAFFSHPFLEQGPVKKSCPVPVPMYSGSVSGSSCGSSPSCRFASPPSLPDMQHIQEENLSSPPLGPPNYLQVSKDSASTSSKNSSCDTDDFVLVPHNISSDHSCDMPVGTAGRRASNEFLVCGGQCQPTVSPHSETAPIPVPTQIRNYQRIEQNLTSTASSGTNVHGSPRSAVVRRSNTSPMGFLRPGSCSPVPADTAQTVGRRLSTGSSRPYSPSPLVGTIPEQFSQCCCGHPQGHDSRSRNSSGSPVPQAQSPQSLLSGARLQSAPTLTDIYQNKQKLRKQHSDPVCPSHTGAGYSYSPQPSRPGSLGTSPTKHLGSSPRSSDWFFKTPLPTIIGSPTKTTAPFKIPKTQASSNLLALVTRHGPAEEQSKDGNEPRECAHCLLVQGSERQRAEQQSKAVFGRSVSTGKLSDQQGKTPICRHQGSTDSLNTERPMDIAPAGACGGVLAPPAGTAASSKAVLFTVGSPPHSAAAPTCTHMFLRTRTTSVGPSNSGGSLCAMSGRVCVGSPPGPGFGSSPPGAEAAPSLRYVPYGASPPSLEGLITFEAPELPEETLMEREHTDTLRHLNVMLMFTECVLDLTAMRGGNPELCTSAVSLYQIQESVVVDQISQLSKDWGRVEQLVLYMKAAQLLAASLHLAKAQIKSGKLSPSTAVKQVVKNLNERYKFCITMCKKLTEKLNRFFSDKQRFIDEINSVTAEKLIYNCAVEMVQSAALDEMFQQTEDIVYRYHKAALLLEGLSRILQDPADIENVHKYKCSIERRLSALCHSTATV
Experimental: as §1, §2, §3, §4

A2058 = experiment: Cell proliferation, CellTiter-Glo; assay type: cell-based; settings: Homo sapiens, 144 h; A2058, Melanoma, RB -; four or six days; read-out: G1T38 EC50, growth inhibition
Experimental: (§5) To assess the capacity of G1T38 to inhibit proliferation of tumor cell lines, a broad panel of CDK4/6 dependent and independent lines was evaluated using CellTiter Glo (Table 2).
(§6) SupT1, Daudi, MCF7, ZR-75-1, A2058, WM2664, and H69 cells were seeded at 1000 cells per well; MV-4-11 and BV173 cells were plated at 4000 cells per well; Tom-1 cells were plated at 8,000 cells per well; NALM-1 cells were plated at 20,000 cells per well in Costar 3903 96 well plates. After 24 hours, plates were dosed with G1T38 at a nine-point dose concentration from 10 μM to 1 nM. Cell viability was determined after four or six days using the CellTiter-Glo® assay (Promega; Madison, WI) following manufacturer's recommendations. Plates were processed on BioTek (Winooski, VT) Synergy2 multi-mode plate reader and data analyzed using GraphPad (San Diego, CA) Prism 5 statistical software.

BV173 = experiment: Cell proliferation, CellTiter-Glo; assay type: cell-based; settings: Homo sapiens, BV-173, 144 h; BV173, Ph1+ leukemia, RB +; four or six days; read-out: G1T38 EC50, growth inhibition
Experimental: as §5, §6

Daudi = experiment: Cell proliferation, CellTiter-Glo; assay type: cell-based; settings: Homo sapiens, 144 h, Lymphoma, RB +, four or six days, read-out: G1T38 EC50, growth inhibition
Experimental: as §5, §6

H69 = experiment: Cell proliferation, CellTiter-Glo; assay type: cell-based; settings: Homo sapiens, NCI-H69, 144 h; H69, SCLC, RB -; four or six days; read-out: G1T38 EC50, growth inhibition
Experimental: as §5, §6

MCF7 = experiment: Cell proliferation, CellTiter-Glo; assay type: cell-based; settings: Homo sapiens, 144 h; MCF7, ER+ breast cancer, RB +; four or six days; read-out: G1T38 EC50, growth inhibition
Experimental: as §5, §6

WM2664 = experiment: Cell proliferation, CellTiter-Glo; assay type: cell-based; settings: Homo sapiens, WM 266-4, 144 h; WM2664, Melanoma, RB +; four or six days; read-out: G1T38 EC50, growth inhibition
Experimental: as §5, §6

[1] = test system: RNA polymerase II (RPB1) CTD (SER2) phosphorylation in HS68 cells; experiment: Western blot for Rpb1 CTD; assay type: cell-based; settings: immunoblot, 3-1000 nM, 24 hours
[2] = test system: pRB in MCF7 xenograft tumors; experiment: Inhibition of Rb phosphorylation in MCF-7 tumors; assay type: in vivo, mice; settings: single oral dose 100 mg/kg
ER+ MCF7 xenograft = experiment: MCF-7 breast cancer xenograft model; assay type: in vivo, mice; settings: for tumor growth inhibition (TGI): after 27 days of treatment
Experimental: Tumors were measured every 3 to 4 days during treatment for up to 20 days post-treatment. […] South Texas Accelerated Research Therapeutics (START; San Antonio, Texas) evaluated the antitumor activity of G1T38 in a START Cell-Based Xenograft (START-CBX) tumor model, MCF-7, representing human breast cancer. Data collected from this efficacy study included animal weights, observations, and tumor dimensions. This information was used to determine agent tolerability based on weight change and gross physiologic changes, and anticancer activity based on tumor growth inhibition or regression. Study endpoint was Day 60. MCF-7 cells were harvested from culture and injected into immune-deficient mice and the study initiated at a mean tumor volume of approximately 150-250 mm^3. […] Tumor growth inhibition (%TGI) was calculated using the following equation: %TGI=(1-(((TVtmtfinal-TVtmtinitial))/((AVERAGE(TVctlfinal))-(AVERAGE(TVctlinital)))))*100.

[3] = 28-day repeat-dose GLP toxicity study; assay type: in vivo; settings: dog
[4] = test system: castration resistant prostate cancer (CRPC) models; set-up: method as in Stice JP, Wardell SE, Norris, JD et al., in press; settings: ref Stice JP, Wardell SE, Norris, JD et al., in press; cited from earlier work
in vivo = settings: C57BL/6, mouse, po

CC(C)N1CCN(c2ccc(Nc3ncc4cc5n(c4n3)C3(CCCCC3)CNC5=O)nc2)CC1.Cl.Cl [G1T38, 2′-((5-(4-isopropylpiperazin-1-yl)pyridin-2-yl)amino)-7′, 8′dihydro-6′Hspiro[cyclohexane1,9′ pyrazino[1′,2′:1,5]pyrrolo[2,3-d]pyrimidin]-6′-one di-hydrochloride]
IC50 (CDK9/Cyclin T): 28 nM | Kd (CDK4/ CyclinD1): 0.15 nM | Kd (CDK4/ CyclinD3): 0.05 nM | Kd (FLT3 (D835V)): 6.5 nM | Kd (NEK10): 0.18 nM | Kd (PRKD2): 10 nM | Kd (PRKD3): 5 nM | Kd (SLK): 11 nM | Kd (SNARK): 0.69 nM | Kd (TTK): 4.2 nM | Kd (ULK2): 5.5 nM | EC50 (A2058): 2690 nM | EC50 (BV173): 296 nM | EC50 (Daudi): 784 nM | EC50 (H69): 2920 nM | EC50 (MCF7): 52 nM | EC50 (WM2664): 125 nM | RPB1 CTD (SER2) phosphorylation (CDK9/cyclin T function) [1]: no loss | decrease of phosphorylated RB relative to the control ([2]; 1 hour post-treatment): 30% | decrease of phosphorylated RB relative to the control ([2]; 24 hours post-treatment): 98% | phosphorylation of RB, of control levels ([2]; 48 hours post-treatment): approximately 31% | tumor growth inhibition (TGI) (ER+ MCF7 xenograft; 10 mg/kg once daily oral): approximately 12% | tumor response, combination with fulvestrant (ER+ MCF7 xenograft; 50 mg/kg G1T38 + 5 mg fulvestrant, 28 days): near complete, sustained tumor regression | tumor response, combination with tamoxifen (ER+ MCF7 xenograft; 50 mg/kg G1T38 + 20 mg/kg tamoxifen, 28 days): near complete, sustained tumor regression | efficacy compared with palbociclib (ER+ MCF7 xenograft; 50 mg/kg daily oral, 28 days): significantly more efficacious than palbociclib | tumor growth inhibition (TGI) (ER+ MCF7 xenograft; 50 mg/kg once daily oral): ~74% | time to tumor regression (ER+ MCF7 xenograft; 100 mg/kg daily oral): ≤ 10 days | tumor growth inhibition (TGI) (ER+ MCF7 xenograft; 100 mg/kg once daily oral): ~90% | efficacy, combination with GDC0941 (ER+ MCF7 xenograft; G1T38 25 or 50 mg/kg + GDC0941 100 mg/kg): greater efficacy than any of the treatments alone | tumor response, combination with GW5638 (ER+ MCF7 xenograft; G1T38 25 or 50 mg/kg + GW5638 25 mg/kg): sustained tumor regression | TGI as single agents (GDC0941 study) (ER+ MCF7 xenograft; G1T38 25 or 50 mg/kg alone, GDC0941 100 mg/kg alone): modest TGI | TGI as single agents (GW5638 study) (ER+ MCF7 xenograft; G1T38 25 or 50 mg/kg alone, GW5638 25 mg/kg alone): modest TGI | findings on oral administration [3]: reduction of bone marrow cellularity and lymphocyte depletion | anti-tumor activity compared with docetaxel [4]: equivalent anti-tumor activity | concentration at 24 h (in vivo): ~22 nM
